Reference: US10947196B2, “Beta adrenergic agonist and methods of using the same” (CURASEN THERAPEUTICS, INC., priority 2019, dated 2021)
Like-named read-outs stand apart in the source and are kept apart here.

Experiments:
β1-adrenergic receptor = β1-adrenergic receptor (Homo sapiens (Human), UniProt P08588); assay: cAMP Gs dynamic HTRF assay, β1 expressing CHO cells; format: cell-based
Experimental: (§1) cAMP homogeneous time-resolved fluorescence (HTRF). Compound efficacy was determined using the cAMP Gs dynamic HTRF assay (Cisbio, catalog #62AM4PEC) largely following the manufacturer's instructions, also detailed below.
(§2) Compound preparation. […] Standard serial dilution curves were 10-point, 5-fold dilutions starting from a highest concentration of 10 μM. […] Assay plates were centrifuged at 500×g for 10 seconds. Compounds and IBMX were prepared at 2× final dose to compensate for addition of cells.
(§3) Cell preparation. 1× stimulation buffer, washing PBS (Dulbecco's phosphate-buffered saline, −Mg −Ca; Caisson Labs, catalog #PBL01), assay PBS (Dulbecco's phosphate-buffered saline, +Mg, +Ca; Caisson Labs, catalog #PBL02) and Versene (0.02% EDTA disodium salt solution in PBS without calcium or magnesium; Caisson Labs, catalog #EDL01) were pre-warmed to 37° C. Cells expressing beta-adrenergic receptor were washed in washing PBS to remove growth medium and then released from the surface by incubating with Versene for 5-10 minutes at 37° C. Cells were harvested using assay PBS, counted manually by hemocytometer or by an automated cell counter, pelleted by centrifugation (200×g, 5 minutes) and resuspended in 37° C. 1× stimulation buffer to a final density of 1.5×10^6 cells/mL. 5 μL of the suspended cell solution (7500 cell total) were added to all wells of the 384 well assay plate, the assay plate was covered with an Axygen® plate seal (Corning PCR-SP) and incubated in a humidified 37° C. environment supplemented with 5% CO2 for 30 minutes.
(§4) HTRF reagent addition, reading and data analysis. After 30 minutes of cell stimulation with test compound, the assay plates were centrifuged at 500×g for 10 seconds, and incubation was stopped with the addition of 5 μL cAMP-D2 acceptor, diluted 1:21 in detection and lysis buffer 2 (Cisbio 62CL2FDF) was added to all cells. Subsequently, 5 μL Anti-cAMP-Eu Donor, diluted 1:21 in detection and lysis buffer 2, was added to cells. Plates were sealed and reactions gently ‘vortexed’ at 900 rpm on a Heidolph Titramax 1000 for at least 30 minutes at room temperature. Plates were centrifuged again at 500×g for 10 seconds, and HTRF was measured using a Tecan Spark plate reader at 50 flashes per well. […] Potency estimates (EC50) were derived from the four-parameter nonlinear regression of the concentration-effect curve and an estimate of relative efficacy was determined by comparing the magnitude of the test compound HTRF signal window (min−max dose) with the signal window of the full agonist control, isoproterenol.

β2 adrenergic receptor = β2 adrenergic receptor (Homo sapiens (Human), UniProt P07550); assay: cAMP Gs dynamic HTRF assay, β2 expressing CHO cells; format: cell-based
Experimental: as §1, §2, §3, §4

[1] = B1-AR, CHO-K cells, read-out: Average EC50 [Receptor subtype: B1-AR, Cell type: CHO-K]
[2] = B2-AR, CHO-K1 (HitHunter), read-out: Average pEC50 [Receptor subtype: B2-AR, Cell type: CHO-K1 (HitHunter)] (converted)
[3] = B2-AR, CHO-K cells, read-out: Average EC50 [Receptor subtype: B2-AR, Cell type: CHO-K]
[4] = B1-AR, CHO-K1 (HitHunter), read-out: Average pEC50 [Receptor subtype: B1-AR, Cell type: CHO-K1 (HitHunter)] (converted)

Chain of β2 adrenergic receptor (P07550 whole entry, species assumed): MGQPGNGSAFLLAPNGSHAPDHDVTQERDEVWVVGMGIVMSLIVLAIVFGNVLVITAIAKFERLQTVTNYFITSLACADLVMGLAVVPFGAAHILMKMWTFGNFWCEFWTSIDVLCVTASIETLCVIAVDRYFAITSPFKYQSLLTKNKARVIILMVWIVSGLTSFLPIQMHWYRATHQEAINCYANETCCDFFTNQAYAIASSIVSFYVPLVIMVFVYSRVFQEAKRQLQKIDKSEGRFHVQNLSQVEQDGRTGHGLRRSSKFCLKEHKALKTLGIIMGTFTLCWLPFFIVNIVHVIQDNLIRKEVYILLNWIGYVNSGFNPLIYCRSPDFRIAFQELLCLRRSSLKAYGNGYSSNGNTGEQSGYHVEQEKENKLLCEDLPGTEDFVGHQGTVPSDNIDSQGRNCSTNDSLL
Chain of β1-adrenergic receptor (P08588 whole entry, species assumed): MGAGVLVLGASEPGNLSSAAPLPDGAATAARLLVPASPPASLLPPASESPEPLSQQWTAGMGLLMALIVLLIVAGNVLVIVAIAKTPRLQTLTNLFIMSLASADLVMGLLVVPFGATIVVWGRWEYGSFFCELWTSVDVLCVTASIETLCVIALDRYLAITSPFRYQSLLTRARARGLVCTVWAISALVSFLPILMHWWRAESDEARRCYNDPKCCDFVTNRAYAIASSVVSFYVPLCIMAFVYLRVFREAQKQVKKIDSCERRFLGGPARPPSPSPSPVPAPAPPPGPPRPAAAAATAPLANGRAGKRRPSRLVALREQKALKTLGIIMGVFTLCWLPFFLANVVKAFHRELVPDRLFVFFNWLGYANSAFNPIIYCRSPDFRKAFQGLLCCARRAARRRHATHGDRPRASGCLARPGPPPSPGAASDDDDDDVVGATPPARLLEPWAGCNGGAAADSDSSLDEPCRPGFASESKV

| Structure (SMILES) | EC50 (β1-adrenergic receptor; cAMP HTRF, read-out: β1 EC50) [µM] | EC50 (β2 adrenergic receptor; cAMP HTRF, read-out: β2 EC50) [µM] | Average pEC50 [Receptor subtype: B1-AR; Cell type: CHO-K1 (HitHunter)] (β1-adrenergic receptor; B1-AR, CHO-K1 (HitHunter)) | EC50 (β1-adrenergic receptor; [1]) [µM] | EC50 (β2 adrenergic receptor; [2]) [µM] | EC50 (β2 adrenergic receptor; [3]) [µM] | EC50 (β1-adrenergic receptor; [4]) [µM] |
| --- | --- | --- | --- | --- | --- | --- | --- |
| CC(C)(C)NC[C@H](O)c1ncccc1C(F)(F)F [Compound 03-1, (S)-2-(tert-butylamino)-1-(3-(trifluoromethyl)pyridin-2-yl)ethan-1-ol] | > 1 | > 1 | – | – | – | – | – |
| CC(C)(C)NC[C@H](O)c1cc(C(F)(F)F)ccn1 [Compound 03-2] | > 1 | 0.1 to 1 | – | – | – | – | – |
| Cc1cccnc1[C@@H](O)CNC(C)(C)C [Compound 03-4] | > 1 | > 1 | – | – | – | – | – |
| CN(C)C(=O)c1cccc([C@@H](O)CNC(C)(C)C)n1 [Compound 03-7] | – | – | D (D < 6) | > 1 | 0.1 to 1 | 0.1 to 1 | – |
| CC1(NC[C@@H](O)c2cccc(C(F)(F)F)n2)CCC1 [Compound 03-12] | – | – | – | > 1 | 0.1 to 1 | 0.1 to 1 | > 1 |
| CC1(NC[C@@H](O)c2cccc(C(F)(F)F)n2)CC1 [Compound 03-13] | – | – | – | > 1 | > 1 | > 1 | > 1 |
| COc1ccc(C[C@@H](C)NC[C@@H](O)c2cccc(C(F)(F)F)n2)cc1 [Compound 03-16] | – | – | – | 0.1 to 1 | 0.01 to 0.1 | 0.01 to 0.1 | 0.1 to 1 |
| CC(C)(C)NC[C@H](O)c1cccc(C(N)=O)n1 [Compound 03-17] | – | – | D (D < 6) | > 1 | > 1 | > 1 | – |
| CC(C)(C)NC[C@H](O)c1cccc(-c2nnn[nH]2)n1 [Compound 03-18] | – | – | D (D < 6) | > 1 | – | – | – |
| Cc1cc([C@H](O)CNC(C)(C)C)nc(C(F)(F)F)c1 [Compound 03-20] | – | – | – | > 1 | 0.1 to 1 | 0.1 to 1 | > 1 |
| O[C@H](CNC1Cc2ccccc2C1)c1cccc(C(F)(F)F)n1 [Compound 03-22] | – | – | – | > 1 | > 1 | > 1 | > 1 |
| CC1(NC[C@H](O)c2cccc(C(F)(F)F)n2)CCOCC1 [Compound 03-23] | – | – | – | 0.1 to 1 | 0.1 to 1 | 0.1 to 1 | 0.1 to 1 |
| O[C@@H](CNC1CCOCC1)c1cccc(C(F)(F)F)n1 [Compound 03-25] | – | – | D (D < 6) | > 1 | > 1 | > 1 | – |
| CC(C)(C)NC[C@H](O)c1cccc(-c2ccccc2)n1 [Compound 03-28] | – | – | – | 0.01 to 0.1 | < 0.01 | < 0.01 | 0.01 to 0.1 |
| CC(C)(C)NC[C@H](O)c1ccc(C#N)c(C(F)(F)F)n1 [Compound 03-30] | – | – | – | 0.1 to 1 | 0.01 to 0.1 | 0.01 to 0.1 | 0.1 to 1 |
| CC(C)(C)NC[C@@H](O)c1ccc(C#N)c(C(F)(F)F)n1 [Compound 03-31] | – | – | – | – | > 1 | > 1 | – |
| CC(C)(C)NC[C@H](O)c1cccc(Br)n1 [Compound 03-32] | – | – | – | < 0.01 | 0.01 to 0.1 | 0.01 to 0.1 | < 0.01 |
| O[C@H](CNC1CCC1)c1cccc(C(F)(F)F)n1 [Compound 03-34] | – | – | D (D < 6) | > 1 | > 1 | > 1 | – |
| CC(C)NC[C@@H](O)c1cccc(C(F)(F)F)n1 [Compound 03-36] | – | – | – | > 1 | > 1 | > 1 | > 1 |
| CC(C)(C)NC[C@@H](O)c1cccc(C(F)(F)F)n1 [Compound 03-43] | – | – | – | > 1 | 0.1 to 1 | > 1 | > 1 |
| Cc1cccc([C@H](O)CNC(C)(C)C)n1 [Compound 03-47] | – | – | – | > 1 | > 1 | > 1 | > 1 |
| CN(C)c1ncccc1[C@@H](O)CNC(C)(C)C [Compound 03-56] | – | – | – | – | > 1 | > 1 | – |
| CC(C)(C)NC[C@H](O)c1cccnc1-c1cccc(F)c1 [Compound 03-61] | – | – | – | – | > 1 | > 1 | – |
| CC(C)(C)NC[C@H](O)c1cccnc1C1=CCCC1 [Compound 03-62] | – | – | – | – | > 1 | – | – |
| CCNc1ncccc1[C@@H](O)CNC(C)(C)C [Compound 03-73] | – | – | – | – | > 1 | – | – |
| Cc1cnc(C2CCCC2)c([C@@H](O)CNC(C)(C)C)c1 [Compound 03-77] | – | – | – | – | > 1 | – | – |
| CC(C)(C)NC[C@H](O)c1cc(C(F)(F)F)cnc1C1CCCC1 [Compound 03-78] | – | – | – | – | – | – | < 0.01 |
